Measurements from ChEMBL document CHEMBL4024791, “Identification of Morpholino-2H-pyrido[3,2-b][1,4]oxazin-3(4H)-ones as Nonsteroidal Mineralocorticoid Antagonists” (J Med Chem, 2018).
pIC50: −log10 of the molar value.

Legend:
hERG (KCNH2) = hERG (KCNH2) (Homo sapiens, UniProt Q12809); experiment: Displacement of [3H]-dofetilide from human ERG at 10 uM; settings: probe [3H]-dofetilide
Progesterone receptor = biological target: T1, Progesterone receptor (Homo sapiens, UniProt P06401); experiment: Antagonist activity at PR (unknown origin) by Gal4-based cellular assay
T1 sequence (P06401 whole entry): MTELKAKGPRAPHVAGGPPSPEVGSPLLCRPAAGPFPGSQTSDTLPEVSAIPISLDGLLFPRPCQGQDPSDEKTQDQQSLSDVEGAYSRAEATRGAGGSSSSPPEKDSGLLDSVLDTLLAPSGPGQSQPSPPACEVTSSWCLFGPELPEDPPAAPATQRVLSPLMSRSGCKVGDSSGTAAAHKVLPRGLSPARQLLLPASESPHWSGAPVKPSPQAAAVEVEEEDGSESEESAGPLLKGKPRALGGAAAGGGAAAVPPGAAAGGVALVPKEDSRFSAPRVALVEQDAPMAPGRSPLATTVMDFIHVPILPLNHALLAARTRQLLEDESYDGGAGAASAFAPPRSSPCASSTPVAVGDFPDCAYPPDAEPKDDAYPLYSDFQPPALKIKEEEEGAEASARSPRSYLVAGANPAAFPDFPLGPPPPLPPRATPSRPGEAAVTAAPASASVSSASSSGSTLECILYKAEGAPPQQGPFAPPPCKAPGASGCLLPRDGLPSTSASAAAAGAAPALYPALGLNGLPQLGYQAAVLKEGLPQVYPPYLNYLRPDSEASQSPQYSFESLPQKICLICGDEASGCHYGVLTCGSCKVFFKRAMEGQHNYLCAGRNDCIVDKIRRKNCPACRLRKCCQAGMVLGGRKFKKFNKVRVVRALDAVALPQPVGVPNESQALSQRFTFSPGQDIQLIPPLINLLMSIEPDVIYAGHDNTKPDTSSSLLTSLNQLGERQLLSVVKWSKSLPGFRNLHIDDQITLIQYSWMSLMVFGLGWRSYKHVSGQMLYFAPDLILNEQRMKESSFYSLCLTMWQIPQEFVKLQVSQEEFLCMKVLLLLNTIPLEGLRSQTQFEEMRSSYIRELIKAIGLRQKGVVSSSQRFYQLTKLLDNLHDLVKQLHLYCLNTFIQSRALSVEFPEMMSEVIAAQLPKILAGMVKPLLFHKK

[1] = Intrinsic clearance in rat liver microsomes
[2] = AUC in Wistar rat at 30 mg/kg, po administered as single dose measured up to 8 hrs post dose by LC-MS analysis; type: ADME, organism-based; design: time < 8 hr, dose 30 mg/kg, route oral; settings: in vivo
MDR1 (P-gp) [3] = experiment: Apparent permeability across apical to basolateral side in MDCK cells expressing human MDR1; type: ADME, cell-based, Canis lupus familiaris; settings: dog
[4] = Fraction unbound in rat plasma; type: ADME, cell-free
Androgen receptor = biological target: T2, Androgen receptor (Homo sapiens, UniProt P10275); experiment: Binding affinity to AR (unknown origin); type: ADME
T2 sequence (P10275 whole entry): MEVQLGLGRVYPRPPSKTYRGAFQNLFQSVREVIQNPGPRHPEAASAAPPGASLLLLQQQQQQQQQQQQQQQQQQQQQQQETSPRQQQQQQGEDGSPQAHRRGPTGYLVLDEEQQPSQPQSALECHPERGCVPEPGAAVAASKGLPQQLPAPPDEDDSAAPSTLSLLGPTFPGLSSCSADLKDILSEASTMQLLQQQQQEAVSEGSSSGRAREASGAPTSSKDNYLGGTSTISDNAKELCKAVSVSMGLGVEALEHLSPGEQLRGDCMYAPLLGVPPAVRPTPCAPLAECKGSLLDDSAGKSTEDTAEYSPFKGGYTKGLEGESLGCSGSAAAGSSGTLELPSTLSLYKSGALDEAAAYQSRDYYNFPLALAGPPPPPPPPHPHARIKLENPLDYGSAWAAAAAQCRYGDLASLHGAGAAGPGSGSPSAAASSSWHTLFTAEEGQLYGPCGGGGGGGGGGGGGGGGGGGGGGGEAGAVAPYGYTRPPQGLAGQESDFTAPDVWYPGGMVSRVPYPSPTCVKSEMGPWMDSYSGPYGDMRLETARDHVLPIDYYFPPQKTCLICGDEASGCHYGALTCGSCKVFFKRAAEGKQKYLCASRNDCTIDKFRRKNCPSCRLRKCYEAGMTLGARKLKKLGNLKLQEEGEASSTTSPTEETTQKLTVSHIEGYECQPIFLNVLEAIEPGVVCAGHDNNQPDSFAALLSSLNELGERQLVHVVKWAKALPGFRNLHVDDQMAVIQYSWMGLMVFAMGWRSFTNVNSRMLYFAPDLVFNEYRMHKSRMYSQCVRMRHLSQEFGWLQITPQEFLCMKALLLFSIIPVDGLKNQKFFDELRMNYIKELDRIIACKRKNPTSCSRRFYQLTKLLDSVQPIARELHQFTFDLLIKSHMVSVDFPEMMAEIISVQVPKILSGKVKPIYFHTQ

[5] = Fraction unbound in human plasma; type: ADME, cell-free
[6] = Oral bioavailability in rat; type: ADME, organism-based; settings: in vivo
MDR1 (P-gp) [7] = experiment: Apparent permeability across basolateral to apical side in MDCK cells expressing human MDR1; type: ADME, cell-based, Canis lupus familiaris; settings: dog
Glucocorticoid receptor = biological target: T3, Glucocorticoid receptor (Homo sapiens, UniProt P04150); experiment: Binding affinity to GR (unknown origin) expressed in human IM9 cells; type: cell-based
T3 sequence (P04150 whole entry): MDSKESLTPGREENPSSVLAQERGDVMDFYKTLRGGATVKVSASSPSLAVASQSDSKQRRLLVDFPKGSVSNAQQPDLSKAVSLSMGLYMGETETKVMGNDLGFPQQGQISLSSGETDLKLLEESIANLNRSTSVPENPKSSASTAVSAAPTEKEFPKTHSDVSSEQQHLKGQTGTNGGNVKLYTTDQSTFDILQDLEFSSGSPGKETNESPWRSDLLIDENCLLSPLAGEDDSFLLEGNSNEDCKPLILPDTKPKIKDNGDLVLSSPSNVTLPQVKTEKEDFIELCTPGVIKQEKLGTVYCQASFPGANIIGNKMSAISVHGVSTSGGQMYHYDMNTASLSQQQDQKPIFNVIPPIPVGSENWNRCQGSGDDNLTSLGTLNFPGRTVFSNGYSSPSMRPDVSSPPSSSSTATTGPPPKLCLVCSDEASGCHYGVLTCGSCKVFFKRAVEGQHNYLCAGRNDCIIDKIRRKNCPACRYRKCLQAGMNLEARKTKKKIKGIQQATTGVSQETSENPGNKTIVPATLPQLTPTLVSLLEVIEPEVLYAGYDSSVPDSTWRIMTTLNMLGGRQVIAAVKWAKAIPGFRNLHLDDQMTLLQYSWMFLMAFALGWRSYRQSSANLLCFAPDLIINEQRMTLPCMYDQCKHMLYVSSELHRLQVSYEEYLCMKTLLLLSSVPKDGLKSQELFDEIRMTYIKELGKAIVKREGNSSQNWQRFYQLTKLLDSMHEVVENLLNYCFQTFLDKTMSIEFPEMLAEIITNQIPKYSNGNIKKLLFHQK

[8] = Oral bioavailability in dog; type: ADME, organism-based, Canis lupus familiaris; settings: in vivo

hERG (KCNH2), sequence (Q12809 whole entry, the tested form may be a part): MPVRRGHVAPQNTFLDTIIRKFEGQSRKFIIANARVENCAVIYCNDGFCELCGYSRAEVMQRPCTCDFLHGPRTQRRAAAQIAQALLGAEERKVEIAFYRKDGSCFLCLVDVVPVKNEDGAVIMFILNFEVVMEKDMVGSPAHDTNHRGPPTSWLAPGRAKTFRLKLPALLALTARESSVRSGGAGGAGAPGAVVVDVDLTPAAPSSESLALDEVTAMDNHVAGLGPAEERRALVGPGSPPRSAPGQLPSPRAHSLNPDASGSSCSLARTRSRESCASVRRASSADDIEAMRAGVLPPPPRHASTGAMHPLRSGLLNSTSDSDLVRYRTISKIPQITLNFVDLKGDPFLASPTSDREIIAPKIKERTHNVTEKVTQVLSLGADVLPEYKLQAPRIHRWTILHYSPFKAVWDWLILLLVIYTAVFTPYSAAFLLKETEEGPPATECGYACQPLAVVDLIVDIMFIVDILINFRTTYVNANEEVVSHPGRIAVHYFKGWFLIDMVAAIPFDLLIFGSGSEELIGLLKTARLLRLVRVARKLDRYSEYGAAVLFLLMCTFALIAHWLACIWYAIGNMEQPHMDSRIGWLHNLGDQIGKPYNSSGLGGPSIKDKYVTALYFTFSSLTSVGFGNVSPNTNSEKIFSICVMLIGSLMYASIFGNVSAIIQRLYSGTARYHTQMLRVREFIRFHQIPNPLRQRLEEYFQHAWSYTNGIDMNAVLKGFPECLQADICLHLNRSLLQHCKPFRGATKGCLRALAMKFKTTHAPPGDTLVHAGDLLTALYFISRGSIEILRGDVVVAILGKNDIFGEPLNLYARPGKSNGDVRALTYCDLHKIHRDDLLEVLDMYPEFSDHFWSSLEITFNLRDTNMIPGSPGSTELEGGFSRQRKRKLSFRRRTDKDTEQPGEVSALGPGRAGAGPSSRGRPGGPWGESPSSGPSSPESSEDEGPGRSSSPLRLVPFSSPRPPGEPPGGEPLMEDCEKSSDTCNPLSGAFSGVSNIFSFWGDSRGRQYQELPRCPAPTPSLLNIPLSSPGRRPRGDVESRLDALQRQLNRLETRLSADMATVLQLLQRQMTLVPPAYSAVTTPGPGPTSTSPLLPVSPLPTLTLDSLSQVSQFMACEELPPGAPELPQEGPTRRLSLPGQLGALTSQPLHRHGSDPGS

Structure (SMILES) | inhibition at 10 µM (hERG (KCNH2)) | pIC50 (Progesterone receptor) | microsomal CLint [1] | AUC at 8 h [2] | Papp A→B (MDR1 (P-gp) [3]) | fraction unbound [4] | pIC50 (Androgen receptor) | fraction unbound [5] | bioavailability [6] | Papp B→A (MDR1 (P-gp) [7]) | pIC50 (Glucocorticoid receptor) | bioavailability [8]
O=C1COc2ccc(N3CCOC[C@H]3c3ccccc3)cc2N1 | 5% | < 5.00 | 223 µL/min/mg |  |  |  |  |  |  |  |  | 
C[C@@H]1CN(c2ccc3c(n2)NC(=O)CO3)[C@H](c2ccccc2)CO1 |  | < 5.00 |  | 2850 ng·h/mL | 24.9 ×10⁻⁶ cm/s | 0.15 | < 5.00 | 0.15 | 4 to 16% | 24.7 ×10⁻⁶ cm/s | 6.22 | 65%
